According to ChEMBL document CHEMBL1201862, “PubChem BioAssay data set” (2004):
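Compound exposure: 48 hours, 5 concentrations, 96-well plates. Abbreviation: GI50, concentration required for 50% inhibition of growth.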 Active and inactive are the calls of the source. No stated cut-off is given here; in the data, active = GI50 up to about 1.1 µM and inactive = higher.

What was measured:
Assay in all cases: growth of human tumour cells (NCI), 48 h
UACC-62 = test system: UACC-62
SN12C = test system: SN12C
LOX IMVI = test system: LOX IMVI
786-0 = test system: 786-0
UACC-257 = test system: UACC-257
OVCAR-8 = test system: OVCAR-8
A498 = test system: A498
MDA-MB-435 = test system: MDA-MB-435
SF-295 = test system: SF-295
HL-60 = test system: HL-60
SF-268 = test system: SF-268
HT-29 = test system: HT-29
COLO 205 = test system: COLO 205
NCI-H460 = test system: NCI-H460
MCF7 = test system: MCF7
MDA-N = test system: MDA-N
DU-145 = test system: DU-145
IGROV-1 = test system: IGROV-1
PC-3 = test system: PC-3
K562 = test system: K562

Measured: GI50

COCOC1/C=C/CCCCC2=C(C)C=C(C1)O2 (stereo not given)
inactive: UACC-62 > 100 µM | SN12C > 100 µM | LOX IMVI > 100 µM | 786-0 > 100 µM | UACC-257 > 100 µM | OVCAR-8 > 100 µM | A498 > 100 µM | MDA-MB-435 > 100 µM | SF-295 > 100 µM | HL-60 45.4 µM | SF-268 > 100 µM | HT-29 > 100 µM | COLO 205 > 100 µM | NCI-H460 > 100 µM | MCF7 > 100 µM | MDA-N > 100 µM | DU-145 > 100 µM | IGROV-1 > 100 µM | PC-3 > 100 µM | K562 > 100 µM

Cc1ccc(S(=O)(=O)N2CCNCCN(S(=O)(=O)c3ccc(C)cc3)CCN(S(=O)(=O)c3ccc(C)cc3)CC2)cc1
inactive: UACC-62 > 100 µM | SN12C > 100 µM | LOX IMVI > 100 µM | 786-0 > 100 µM | UACC-257 > 100 µM | OVCAR-8 > 100 µM | A498 > 100 µM | MDA-MB-435 > 100 µM | SF-295 > 100 µM | HL-60 > 100 µM | SF-268 > 100 µM | HT-29 > 100 µM | COLO 205 > 100 µM | NCI-H460 > 100 µM | MCF7 > 100 µM | MDA-N > 100 µM | DU-145 > 100 µM | IGROV-1 > 100 µM | PC-3 > 100 µM | K562 > 100 µM
